# Results taken from ChEMBL document CHEMBL3885861, “Open TG-GATES”.
# Species on record: Rattus norvegicus
# Assay: Open TG-GATES - Regimen: Daily Repeat
# Format: toxicity, organism-based, Sprague-Dawley
# Design: regimen Daily Repeat, gender Male, age 6 weeks
# Conditions: in vivo, po, 0 mg/kg, route gavage, dose level Control; for APTT / Bas / Eos / Fbg / Hb / Ht / Lym / MCH / MCHC / MCV / Mono / Neu / PT / Plat / RBC / Ret / WBC: tissue Blood; for KIDNEY_L / KIDNEY_R / KIDNEY_TOTAL: tissue Kidney; for LIVER: tissue Liver; for A/G / ALP / ALT / AST / BUN / CRE / Ca / Cl / DBIL / GLC / IP / K / LDH / Na / PL / RALB / TBIL / TC / TG / TP / gamma-GTP: tissue Plasma
compound,measurement,setting,value
O=C(O)COc1nn(Cc2ccccc2)c2ccccc12 [BENDAZAC],TERMINAL_BW,"72 h, time 3 day",229.2 g
same,APTT,"72 h, time 3 day",17.5 s
same,Bas,"72 h, time 3 day",0%
same,Eos,"72 h, time 3 day",1.2%
same,Fbg,"72 h, time 3 day",223.2 mg/dL
same,Hb,"72 h, time 3 day",14.2 g/dL
same,Ht,"72 h, time 3 day",42.6%
same,Lym,"72 h, time 3 day",77.2%
same,MCH,"72 h, time 3 day",21.4 pg
same,MCHC,"72 h, time 3 day",33.3%
same,MCV,"72 h, time 3 day",64.4 fL
same,Mono,"72 h, time 3 day",8.2%
same,Neu,"72 h, time 3 day",13.8%
same,PT,"72 h, time 3 day",11.6 s
same,Plat,"72 h, time 3 day",120.1 x10_4/uL
same,RBC,"72 h, time 3 day",661.6 x10_4/ul
same,Ret,"72 h, time 3 day",6.5%
same,WBC,"72 h, time 3 day",93.7 x10_2/uL
same,KIDNEY_L,"72 h, time 3 day",1 g
same,KIDNEY_R,"72 h, time 3 day",1 g
same,KIDNEY_TOTAL,"72 h, time 3 day",2 g
same,LIVER,"72 h, time 3 day",11.2 g
same,A/G,"72 h, time 3 day",2.1
same,ALP,"72 h, time 3 day",1059.4 IU/L
same,ALT,"72 h, time 3 day",41.4 IU/L
same,AST,"72 h, time 3 day",68.6 IU/L
same,BUN,"72 h, time 3 day",16.6 mg/dL
same,CRE,"72 h, time 3 day",0.5 mg/dL
same,Ca,"72 h, time 3 day",10.9 mg/dL
same,Cl,"72 h, time 3 day",103.4 meq/L
same,DBIL,"72 h, time 3 day",0.022 mg/dL
same,GLC,"72 h, time 3 day",206.8 mg/dL
same,IP,"72 h, time 3 day",7.7 mg/dL
same,K,"72 h, time 3 day",4.7 meq/L
same,LDH,"72 h, time 3 day",101.4 IU/L
same,Na,"72 h, time 3 day",139.8 meq/L
same,PL,"72 h, time 3 day",162.8 mg/dL
same,RALB,"72 h, time 3 day",3.9 g/dL
same,TBIL,"72 h, time 3 day",0.3 mg/dL
same,TC,"72 h, time 3 day",78.2 mg/dL
same,TG,"72 h, time 3 day",127.8 mg/dL
same,TP,"72 h, time 3 day",5.7 g/dL
same,gamma-GTP,"72 h, time 3 day",1.2 IU/L
same,TERMINAL_BW,"[…], time 7 day",264.6 g
same,TERMINAL_BW,"[…], time 14 day",318.4 g
same,TERMINAL_BW,"[…], time 28 day",399.8 g
same,APTT,"[…], time 7 day",16.9 s
same,Bas,"[…], time 7 day",0%
same,Eos,"[…], time 7 day",0.8%
same,Fbg,"[…], time 7 day",228.6 mg/dL
same,Hb,"[…], time 7 day",14.1 g/dL
same,Ht,"[…], time 7 day",41.4%
same,Lym,"[…], time 7 day",80.8%
same,MCH,"[…], time 7 day",21.5 pg
same,MCHC,"[…], time 7 day",34.1%
same,MCV,"[…], time 7 day",63.2 fL
same,Mono,"[…], time 7 day",6%
same,Neu,"[…], time 7 day",12.6%
same,PT,"[…], time 7 day",11.5 s
same,Plat,"[…], time 7 day",128.1 x10_4/uL
same,RBC,"[…], time 7 day",657 x10_4/ul
same,Ret,"[…], time 7 day",5.1%
same,WBC,"[…], time 7 day",96.5 x10_2/uL
same,APTT,"[…], time 14 day",17.2 s
same,Bas,"[…], time 14 day",0%
same,Eos,"[…], time 14 day",0.8%
same,Fbg,"[…], time 14 day",236 mg/dL
same,Hb,"[…], time 14 day",14.5 g/dL
same,Ht,"[…], time 14 day",43%
same,Lym,"[…], time 14 day",80.4%
same,MCH,"[…], time 14 day",21.2 pg
same,MCHC,"[…], time 14 day",33.8%
same,MCV,"[…], time 14 day",62.8 fL
same,Mono,"[…], time 14 day",7%
same,Neu,"[…], time 14 day",11.8%
same,PT,"[…], time 14 day",11 s
same,Plat,"[…], time 14 day",122.8 x10_4/uL
same,RBC,"[…], time 14 day",684.4 x10_4/ul
same,Ret,"[…], time 14 day",4.3%
same,WBC,"[…], time 14 day",120.8 x10_2/uL
same,APTT,"[…], time 28 day",17.8 s
same,Bas,"[…], time 28 day",0%
same,Eos,"[…], time 28 day",1%
same,Fbg,"[…], time 28 day",219 mg/dL
same,Hb,"[…], time 28 day",15.5 g/dL
same,Ht,"[…], time 28 day",45.9%
same,Lym,"[…], time 28 day",83.6%
same,MCH,"[…], time 28 day",19.8 pg
same,MCHC,"[…], time 28 day",33.7%
same,MCV,"[…], time 28 day",58.8 fL
same,Mono,"[…], time 28 day",4.2%
same,Neu,"[…], time 28 day",11.4%
same,PT,"[…], time 28 day",11.7 s
same,Plat,"[…], time 28 day",115.9 x10_4/uL
same,RBC,"[…], time 28 day",779.8 x10_4/ul
same,Ret,"[…], time 28 day",3.5%
same,WBC,"[…], time 28 day",117.2 x10_2/uL
same,KIDNEY_L,"[…], time 7 day",1.1 g
same,KIDNEY_R,"[…], time 7 day",1.2 g
same,KIDNEY_TOTAL,"[…], time 7 day",2.3 g
same,KIDNEY_L,"[…], time 14 day",1.3 g
same,KIDNEY_R,"[…], time 14 day",1.3 g
same,KIDNEY_TOTAL,"[…], time 14 day",2.6 g
same,KIDNEY_L,"[…], time 28 day",1.4 g
same,KIDNEY_R,"[…], time 28 day",1.4 g
same,KIDNEY_TOTAL,"[…], time 28 day",2.8 g
same,LIVER,"[…], time 7 day",13.2 g
same,LIVER,"[…], time 14 day",15.1 g
same,LIVER,"[…], time 28 day",16.2 g
same,A/G,"[…], time 7 day",2
same,ALP,"[…], time 7 day",804.6 IU/L
same,ALT,"[…], time 7 day",30 IU/L
same,AST,"[…], time 7 day",60.8 IU/L
same,BUN,"[…], time 7 day",19.6 mg/dL
same,CRE,"[…], time 7 day",0.5 mg/dL
same,Ca,"[…], time 7 day",11.3 mg/dL
same,Cl,"[…], time 7 day",103.6 meq/L
same,DBIL,"[…], time 7 day",0.012 mg/dL
same,GLC,"[…], time 7 day",222.6 mg/dL
same,IP,"[…], time 7 day",8 mg/dL
same,K,"[…], time 7 day",4.8 meq/L
same,LDH,"[…], time 7 day",84.8 IU/L
same,Na,"[…], time 7 day",141.2 meq/L
same,PL,"[…], time 7 day",146.2 mg/dL
same,RALB,"[…], time 7 day",3.9 g/dL
same,TBIL,"[…], time 7 day",0.3 mg/dL
same,TC,"[…], time 7 day",70 mg/dL
same,TG,"[…], time 7 day",111 mg/dL
same,TP,"[…], time 7 day",5.8 g/dL
same,gamma-GTP,"[…], time 7 day",1 IU/L
same,A/G,"[…], time 14 day",1.6
same,ALP,"[…], time 14 day",749.8 IU/L
same,ALT,"[…], time 14 day",32 IU/L
same,AST,"[…], time 14 day",61.2 IU/L
same,BUN,"[…], time 14 day",18.2 mg/dL
same,CRE,"[…], time 14 day",0.5 mg/dL
same,Ca,"[…], time 14 day",10.4 mg/dL
same,Cl,"[…], time 14 day",105.4 meq/L
same,DBIL,"[…], time 14 day",0.006 mg/dL
same,GLC,"[…], time 14 day",197.2 mg/dL
same,IP,"[…], time 14 day",7.1 mg/dL
same,K,"[…], time 14 day",4.7 meq/L
same,LDH,"[…], time 14 day",102.2 IU/L
same,Na,"[…], time 14 day",141.2 meq/L
same,PL,"[…], time 14 day",158 mg/dL
same,RALB,"[…], time 14 day",3.8 g/dL
same,TBIL,"[…], time 14 day",0.3 mg/dL
same,TC,"[…], time 14 day",74.8 mg/dL
same,TG,"[…], time 14 day",153.2 mg/dL
same,TP,"[…], time 14 day",6.2 g/dL
same,gamma-GTP,"[…], time 14 day",2.4 IU/L
same,A/G,"[…], time 28 day",1.4
same,ALP,"[…], time 28 day",590.2 IU/L
same,ALT,"[…], time 28 day",33.2 IU/L
same,AST,"[…], time 28 day",64.4 IU/L
same,BUN,"[…], time 28 day",20 mg/dL
same,CRE,"[…], time 28 day",0.6 mg/dL
same,Ca,"[…], time 28 day",10 mg/dL
same,Cl,"[…], time 28 day",104.8 meq/L
same,DBIL,"[…], time 28 day",0.01 mg/dL
same,GLC,"[…], time 28 day",189.8 mg/dL
same,IP,"[…], time 28 day",6.4 mg/dL
same,K,"[…], time 28 day",4.4 meq/L
same,LDH,"[…], time 28 day",71.4 IU/L
same,Na,"[…], time 28 day",140.4 meq/L
same,PL,"[…], time 28 day",142.8 mg/dL
same,RALB,"[…], time 28 day",3.6 g/dL
same,TBIL,"[…], time 28 day",0.3 mg/dL
same,TC,"[…], time 28 day",71.2 mg/dL
same,TG,"[…], time 28 day",130 mg/dL
same,TP,"[…], time 28 day",6.2 g/dL
same,gamma-GTP,"[…], time 28 day",1.8 IU/L
